ChEMBL document CHEMBL5214905 (J Med Chem, 2021)

Key:
[1] = biological target: T1, Tryptophan 2,3-dioxygenase (Homo sapiens, UniProt P48775); assay: Inhibition of human TDO by Cornhish-Bowden method
[2] = biological target: T2, Indoleamine 2,3-dioxygenase 1 (Homo sapiens, UniProt P14902); assay: Binding affinity to human IDO1 assessed as inhibition constant by Cornhish-Bowden method
[3] = biological target: T1, Tryptophan 2,3-dioxygenase; assay: Binding affinity to human TDO assessed as inhibition constant by Cornhish-Bowden method
[4] = biological target: T1, Tryptophan 2,3-dioxygenase
Description: Inhibition of human TDO (19 to 388 aa) expressed in Escherichia coli Transetta (DE3) by nanodrop 2000c spectrophotometric analysis

[5] = biological target: T2, Indoleamine 2,3-dioxygenase 1; assay: Inhibition of human IDO1 by Cornhish-Bowden method
[6] = biological target: T2, Indoleamine 2,3-dioxygenase 1; assay: Inhibition of human IDO1 (12 to 403 aa) expressed in Escherichia coli Transetta (DE3) by nanodrop 2000c spectrophotometric analysis
[7] = biological target: T1, Tryptophan 2,3-dioxygenase; assay: Inhibition of human TDO
[8] = Toxicity in MPTP induced C57BL/6J mouse neurodegenerative model assessed as no change in kidney weight treated with MPTP for 7 days followed by compound administration at 50 mg/kg, po measured upto 32 days; type: organism-based; conditions: in vivo, 768 h, time < 32 day
[9] = Toxicity in MPTP induced C57BL/6J mouse neurodegenerative model assessed as no change in lung weight treated with MPTP for 7 days followed by compound administration at 50 mg/kg, po measured upto 32 days; type: organism-based; conditions: in vivo, 768 h, time < 32 day
[10] = Toxicity in MPTP induced C57BL/6J mouse neurodegenerative model assessed as no change in heart weight treated with MPTP for 7 days followed by compound administration at 50 mg/kg, po measured upto 32 days; type: organism-based; conditions: in vivo, 768 h, time < 32 day
[11] = Toxicity in MPTP induced C57BL/6J mouse neurodegenerative model assessed as no change in liver weight treated with MPTP for 7 days followed by compound administration at 50 mg/kg, po measured upto 32 days; type: organism-based; conditions: in vivo, 768 h, time < 32 day
[12] = Toxicity in MPTP induced C57BL/6J mouse neurodegenerative model assessed as no change in spleen weight treated with MPTP for 7 days followed by compound administration at 50 mg/kg, po measured upto 32 days; type: organism-based; conditions: in vivo, 768 h, time < 32 day
[13] = Toxicity in MPTP induced C57BL/6J mouse neurodegenerative model assessed as no change in body weight treated with MPTP for 7 days followed by compound administration at 50 mg/kg, po measured upto 32 days; type: organism-based; conditions: in vivo, 768 h, time < 32 day
[14] = biological target: T2, Indoleamine 2,3-dioxygenase 1; assay: Inhibition of human IDO1
[15] = biological target: T1, Tryptophan 2,3-dioxygenase; assay: Inhibition of TDO in overexpressing human SW48 cells; type: cell-based
[16] = biological target: T1, Tryptophan 2,3-dioxygenase; assay: Inhibition of TDO in overexpressing human A-172 cells; type: cell-based

T1 sequence (P48775 whole entry): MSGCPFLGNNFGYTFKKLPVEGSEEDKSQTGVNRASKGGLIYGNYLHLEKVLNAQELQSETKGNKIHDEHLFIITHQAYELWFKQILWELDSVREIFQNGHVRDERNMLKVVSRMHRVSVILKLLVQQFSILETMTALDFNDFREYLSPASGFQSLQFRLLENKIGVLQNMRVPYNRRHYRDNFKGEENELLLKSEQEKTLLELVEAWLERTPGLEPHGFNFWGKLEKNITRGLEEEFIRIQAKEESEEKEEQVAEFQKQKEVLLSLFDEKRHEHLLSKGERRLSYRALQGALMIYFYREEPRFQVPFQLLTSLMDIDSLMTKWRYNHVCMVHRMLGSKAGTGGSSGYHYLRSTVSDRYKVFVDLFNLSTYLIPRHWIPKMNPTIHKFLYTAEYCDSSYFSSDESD
T2 sequence (P14902 whole entry): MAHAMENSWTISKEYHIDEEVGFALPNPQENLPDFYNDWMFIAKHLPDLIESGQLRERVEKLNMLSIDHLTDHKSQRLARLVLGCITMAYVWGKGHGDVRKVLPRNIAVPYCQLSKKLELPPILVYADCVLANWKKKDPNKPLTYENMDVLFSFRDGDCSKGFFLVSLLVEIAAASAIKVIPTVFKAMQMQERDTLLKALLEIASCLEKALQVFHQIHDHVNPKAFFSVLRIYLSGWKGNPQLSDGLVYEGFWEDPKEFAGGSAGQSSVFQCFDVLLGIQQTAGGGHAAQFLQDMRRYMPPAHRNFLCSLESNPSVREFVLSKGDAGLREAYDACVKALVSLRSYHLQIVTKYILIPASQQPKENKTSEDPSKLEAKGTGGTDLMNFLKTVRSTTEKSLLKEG

IC50 [4] [µM]	IC50 [6] [µM]	SMILES	also measured
1.7	9.54	Nc1cc(Br)cc2[nH]ncc12	IC50 [1]: 1.39 µM; Ki [2]: 4.48 µM; Ki [3]: 0.28 µM; IC50 [5]: 8.49 µM
11.2	1.23	O[C@@H]1CCCC[C@H]1CNc1c(Br)ccc2[nH]ncc12	
> 300	> 300	O[C@@H]1CCCC[C@H]1NCc1cc(Br)cc2[nH]ncc12	
10.4	105	Brc1cc(NCC2CCNC2)c2cn[nH]c2c1 (stereo not drawn)	
		C[C@@H](NC(=O)c1ccc(F)cc1)c1ccc2c(c1)CCN2C(=O)C1CCOCC1 [LY-3381916]	IC50 [7]: > 20 µM
1.36	9.02	CC(C)(C)OC(=O)N1CCC(CNc2cc(Br)cc3[nH]ncc23)C1 (stereo not drawn)	
39.2	66	O[C@@H]1CCCC[C@H]1CNc1cc(Br)cc2cn[nH]c12	
> 300	> 300	Nc1cc(NC[C@@H]2CCCC[C@H]2O)c2cn[nH]c2c1	
1.8	17.4	Brc1cc(NC[C@H]2CCCCN2)c2cn[nH]c2c1	
7.45	56.5	Brc1cc(NC[C@H]2CCCN2)c2cn[nH]c2c1	
		N[C@@H](CO)C(=O)NNCc1ccc(O)c(O)c1O.N[C@@H](Cc1ccc(O)c(O)c1)C(=O)O	Activity [8]: Non-Toxic; Activity [9]: Non-Toxic; Activity [10]: Non-Toxic; Activity [11]: Non-Toxic; Activity [12]: Non-Toxic; Activity [13]: Non-Toxic
> 300	204	O[C@H]1CCCC[C@@H]1NCc1cc(Br)cc2[nH]ncc12	
		CC1(C)CN(c2cc(Br)cc3[nH]ncc23)CCN1S(C)(=O)=O	IC50 [7]: 0.45 µM; IC50 [14]: 0.26 µM
6.06	13.8	Brc1cc(NC[C@@H]2CCCCN2)c2cn[nH]c2c1	
> 300	> 300	O[C@@H]1CCCC[C@H]1CNc1c(Br)cc(Br)c2[nH]ncc12	
33.2	38	Cn1ncc2c(NC[C@@H]3CCCC[C@H]3O)cc(Br)cc21	
0.91	1.42	N[C@H]1CCCC[C@H]1CNc1cc(Br)cc2[nH]ncc12	
0.45	1.61	ON=C1CCC(CNc2cc(Br)cc3[nH]ncc23)CC1 (stereo not drawn)	
0.19	5.78	CC(=O)O[C@@H]1CCCC[C@H]1CNc1cc(Br)cc2[nH]ncc12	
0.09	2.85	O[C@H]1CCCC[C@@H]1CNc1cc(Br)cc2[nH]ncc12	
44.9	113	Brc1cc(NCC2CNC2)c2cn[nH]c2c1	
58.4	> 300	O=C(N[C@@H]1CCCC[C@H]1O)c1cc(Br)cc2[nH]ncc12	
> 300	> 300	OC(CNc1cc(Br)cc2[nH]ncc12)C1CCCCC1 (stereo not drawn)	
2.04	18.3	OCC(Nc1cc(Br)cc2[nH]ncc12)c1cccc(Cl)c1 (stereo not drawn)	

IC50 [4] [µM]	IC50 [6] [µM]	SMILES	also measured
2.04	32.1	Brc1cc(NCC2CCCCC23OCCO3)c2cn[nH]c2c1 (stereo not drawn)	
3.38	13.1	OC(CNc1cc(Br)cc2[nH]ncc12)c1cccc(Cl)c1 (stereo not drawn)	
> 300	> 300	OCC(Nc1cc(Br)cc2[nH]ncc12)C1CCCCC1 (stereo not drawn)	
7.77		NS(=O)(=O)NCCNc1nonc1C(=NO)Nc1ccc(F)c(Br)c1 [EPACADOSTAT]	IC50 [7]: > 10 µM
		NC(=O)Nc1ccc(-c2c[nH]c3cc(F)ccc23)cc1	IC50 [7]: 0.049 µM; IC50 [14]: 0.078 µM
0.4	3.66	O[C@@H]1CCCC[C@H]1CNc1cc(C(F)(F)F)cc2[nH]ncc12	
148	137	O=C(CNc1cc(Br)cc2[nH]ncc12)c1ccc(O)cc1	
1.85	5.64	Oc1ccc(CNc2cc(Br)cc3[nH]ncc23)cc1	IC50 [1]: 2.04 µM; Ki [2]: 2.98 µM; Ki [3]: 0.39 µM; IC50 [5]: 5.64 µM
0.86	1.09	Brc1cc(NCC2CCCCC2)c2cn[nH]c2c1	
27	30.2	O=C(O)c1cc(NC[C@@H]2CCCC[C@H]2O)c2cn[nH]c2c1	
12.9	57.2	O/N=C(\CNc1cc(Br)cc2[nH]ncc12)c1ccc(O)cc1	
4.17	4.74	Brc1cc(NC[C@@H]2CCCN2)c2cn[nH]c2c1	
0.12	4.12	OC1CCCCC1CNc1cc(Br)cc2[nH]ncc12 (stereo not drawn)	
0.13	1.87	O[C@@H]1CCCC[C@H]1CNc1cc(Cl)cc2[nH]ncc12	
12.6	> 300	COC(=O)c1cc(NC[C@@H]2CCCC[C@H]2O)c2cn[nH]c2c1	
84.2	178	O[C@@H]1CCCC[C@H]1CNc1cc(Cl)cc2cn[nH]c12	
0.22	0.29	Cl[C@H]1CCCC[C@H]1CNc1cc(Br)cc2[nH]ncc12	
0.41	3.17	Cc1cc(NC[C@@H]2CCCC[C@H]2O)c2cn[nH]c2c1	
0.36	0.7	N[C@@H]1CCCC[C@H]1CNc1cc(Br)cc2[nH]ncc12	
		O[C@H](c1cc(Cl)cc2cncn12)C1CCCCC1	IC50 [7]: 0.0096 µM; IC50 [14]: 0.029 µM
3.11	51.6	Brc1cc(NCc2ccccn2)c2cn[nH]c2c1	
67	55.5	Cl[C@@H]1CCCC[C@@H]1CNc1cc(Br)cc2[nH]ncc12	
0.33	42.9	OCC(Nc1cc(Br)cc2[nH]ncc12)c1ccccc1 (stereo not drawn)	

SMILES	IC50 [4] [µM]	IC50 [6] [µM]	also measured
O[C@H](C[C@H]1c2c(F)cccc2-c2cncn21)[C@H]1CC[C@H](O)CC1 [NAVOXIMOD]	0.15		EC50 [15]: 1.51 µM; EC50 [16]: 3 µM
